The text below walks through data of patent publication US5045302A, “Ligands and cationic complexes thereof with technetium-99m” (priority 1988, dated 1991).

Each structure is given as a SMILES string.

This series in a line: Rat biodistribution of Tc-99m complexes.

As to `CCOCC(COCC)CP(CCP(CC(COCC)COCC)CC(COCC)COCC)CC(COCC)COCC` [Compound 18], where the note is “2 min p.i.”, the Blood stood at 24.2 % Injected dose/organ, the Heart worked out at 0.58 % Injected dose/organ, the “Heart/Blood Counts/Gram Ratio” value came to 0.37 and the “Heart/Liver Counts/Gram Ratio” value is reported as 0.24. Further, the Liver (2 min p.i.) was 35.1 % Injected dose/organ. Also, under “60 min p.i.”, the Blood was found to be 5.78 % Injected dose/organ, the Heart is given as 0.41 % Injected dose/organ, the “Heart/Blood Counts/Gram Ratio” value was determined as 1.0 and the “Heart/Liver Counts/Gram Ratio” value stood at 0.14. Besides, the Liver (60 min p.i.) is on record as 36.0 % Injected dose/organ.
Take `FC(F)(F)COCCCP(CCCOCC(F)(F)F)CCP(CCCOCC(F)(F)F)CCCOCC(F)(F)F` [Compound 10]: for the setting “2 min p.i.”, the Blood was found to be 40.5 % Injected dose/organ, the Heart is listed as 0.43 % Injected dose/organ, the “Heart/Blood Counts/Gram Ratio” value worked out at 0.17 and the “Heart/Liver Counts/Gram Ratio” value is reported as 0.16. The same compound registered a Liver (2 min p.i.) of 35.2 % Injected dose/organ. Also, under “60 min p.i.”, the Blood is 7.59 % Injected dose/organ, the Heart is 0.14 % Injected dose/organ, the “Heart/Blood Counts/Gram Ratio” value amounted to 0.3 and the “Heart/Liver Counts/Gram Ratio” value was 0.04. This compound came in with a Liver (60 min p.i.) of 48.8 % Injected dose/organ.
On to `COC(C)CCP(CCC(C)OC)CCP(CCC(C)OC)CCC(C)OC` (stereo not drawn) [Compound 15], for which, for the setting “2 min p.i.”, the Blood stood at 12.2 % Injected dose/organ, the Heart turned out to be 0.62 % Injected dose/organ, the “Heart/Blood Counts/Gram Ratio” value was 0.70 and the “Heart/Liver Counts/Gram Ratio” value is reported as 1.01. Under “2 min p.i.”, this compound had a Liver of 8.22 % Injected dose/organ. Moreover, where the note is “60 min p.i.”, the Blood came out at 0.67 % Injected dose/organ, the Heart is reported as 0.51 % Injected dose/organ, the “Heart/Blood Counts/Gram Ratio” value was found to be 9.4 and the “Heart/Liver Counts/Gram Ratio” value stood at 2.48. In addition, the Liver (60 min p.i.) was 2.24 % Injected dose/organ.
Take `COCC(C)CP(CCP(CC(C)COC)CC(C)COC)CC(C)COC` (stereo not drawn) [Compound 14]: under “2 min p.i.”, the Blood was found to be 15.4 % Injected dose/organ, the Heart is given as 0.41 % Injected dose/organ, the “Heart/Blood Counts/Gram Ratio” value was 0.41 and the “Heart/Liver Counts/Gram Ratio” value amounted to 0.98. Under “2 min p.i.”, this compound displayed a Liver of 5.80 % Injected dose/organ. Also, under “60 min p.i.”, the Blood was 1.02 % Injected dose/organ, the Heart amounted to 0.05 % Injected dose/organ, the “Heart/Blood Counts/Gram Ratio” value turned out to be 0.7 and the “Heart/Liver Counts/Gram Ratio” value is recorded as 0.39. The compound further had a Liver (60 min p.i.) of 1.54 % Injected dose/organ.
On to `CCOCP(CCP(COCC)COCC)COCC` [Compound 5], for which, for the setting “2 min p.i.”, the Blood is on record as 12.4 % Injected dose/organ, the Heart is 0.54 % Injected dose/organ, the “Heart/Blood Counts/Gram Ratio” value is 0.68 and the “Heart/Liver Counts/Gram Ratio” value is 0.20. Under “2 min p.i.”, this compound gave a Liver of 33.1 % Injected dose/organ. Further, under “60 min p.i.”, the Blood worked out at 1.63 % Injected dose/organ, the Heart came out at 0.27 % Injected dose/organ, the “Heart/Blood Counts/Gram Ratio” value turned out to be 2.6 and the “Heart/Liver Counts/Gram Ratio” value turned out to be 0.37. This compound also came in with a Liver (60 min p.i.) of 8.85 % Injected dose/organ.
For the compound `COC(C)(C)CCP(CCP(CCC(C)(C)OC)CCC(C)(C)OC)CCC(C)(C)OC` [Compound 16], for the setting “2 min p.i.”, the Blood is on record as 11.4 % Injected dose/organ, the Heart stood at 0.79 % Injected dose/organ, the “Heart/Blood Counts/Gram Ratio” value was 1.01 and the “Heart/Liver Counts/Gram Ratio” value was found to be 0.58. In addition, the Liver (2 min p.i.) was 19.2 % Injected dose/organ. Under “60 min p.i.”, the Blood was found to be 1.58 % Injected dose/organ, the Heart is recorded as 0.54 % Injected dose/organ, the “Heart/Blood Counts/Gram Ratio” value turned out to be 4.69 and the “Heart/Liver Counts/Gram Ratio” value was found to be 0.96. The Liver (60 min p.i.) was determined as 7.71 % Injected dose/organ.
In the case of `CCOCP(CCCP(COCC)COCC)COCC` [Compound 33], under “2 min p.i.”, the Blood amounted to 17.9 % Injected dose/organ, the Heart was determined as 0.50 % Injected dose/organ, the “Heart/Blood Counts/Gram Ratio” value is recorded as 0.43 and the “Heart/Liver Counts/Gram Ratio” value was 0.16. This compound gave a Liver (2 min p.i.) of 39.4 % Injected dose/organ. Also, for the setting “60 min p.i.”, the Blood is given as 3.20 % Injected dose/organ, the Heart is listed as 0.29 % Injected dose/organ, the “Heart/Blood Counts/Gram Ratio” value stood at 1.3 and the “Heart/Liver Counts/Gram Ratio” value worked out at 0.29. For the setting “60 min p.i.”, this compound registered a Liver of 11.4 % Injected dose/organ.
As to `COCC(COC)CP(CCP(CC(COC)COC)CC(COC)COC)CC(COC)COC` [Compound 17], for the setting “2 min p.i.”, the Blood came out at 5.86 % Injected dose/organ, the Heart turned out to be 1.14 % Injected dose/organ, the “Heart/Blood Counts/Gram Ratio” value worked out at 2.99 and the “Heart/Liver Counts/Gram Ratio” value worked out at 0.92. For the same compound, where the note is “2 min p.i.”, the Liver amounted to 17.1 % Injected dose/organ. Where the note is “60 min p.i.”, the Blood was determined as 1.03 % Injected dose/organ, the Heart was 0.86 % Injected dose/organ, the “Heart/Blood Counts/Gram Ratio” value was found to be 13.9 and the “Heart/Liver Counts/Gram Ratio” value stood at 1.59. Where the note is “60 min p.i.”, this compound yielded a Liver of 7.88 % Injected dose/organ.
As for `CCOC(CCP(CCC(OCC)OCC)CCP(CCC(OCC)OCC)CCC(OCC)OCC)OCC` [Compound 20], under “2 min p.i.”, the Blood came out at 7.14 % Injected dose/organ, the Heart is 1.01 % Injected dose/organ, the “Heart/Blood Counts/Gram Ratio” value came out at 1.95 and the “Heart/Liver Counts/Gram Ratio” value worked out at 0.50. Moreover, the Liver (2 min p.i.) came out at 24.50 % Injected dose/organ. For the setting “60 min p.i.”, the Blood was found to be 1.52 % Injected dose/organ, the Heart was 0.81 % Injected dose/organ, the “Heart/Blood Counts/Gram Ratio” value is recorded as 7.9 and the “Heart/Liver Counts/Gram Ratio” value was determined as 0.69. Also, the Liver (60 min p.i.) is given as 14.90 % Injected dose/organ.
Regarding `CCCOCCP(CCOC)CCP(CCOC)CCOCCC` (stereo not drawn) [Compound 29], for the setting “2 min p.i.”, the Blood is 8.75 % Injected dose/organ, the Heart turned out to be 1.23 % Injected dose/organ, the “Heart/Blood Counts/Gram Ratio” value came out at 2.26 and the “Heart/Liver Counts/Gram Ratio” value stood at 0.95. This compound also came in with a Liver (2 min p.i.) of 18.6 % Injected dose/organ. In addition, for the setting “60 min p.i.”, the Blood is 1.64 % Injected dose/organ, the Heart was 1.15 % Injected dose/organ, the “Heart/Blood Counts/Gram Ratio” value is 11.5 and the “Heart/Liver Counts/Gram Ratio” value was 1.40. Further, the Liver (60 min p.i.) amounted to 11.5 % Injected dose/organ.
As to `CCOCCP(CCOCCF)CCP(CCOCC)CCOCCF` (stereo not drawn) [Compound 32], where the note is “2 min p.i.”, the Blood is recorded as 5.85 % Injected dose/organ, the Heart was 0.85 % Injected dose/organ, the “Heart/Blood Counts/Gram Ratio” value stood at 2.31 and the “Heart/Liver Counts/Gram Ratio” value was 1.27. The same compound gave a Liver (2 min p.i.) of 10.8 % Injected dose/organ. For the same compound, where the note is “60 min p.i.”, the Blood stood at 0.38 % Injected dose/organ, the Heart was 0.81 % Injected dose/organ, the “Heart/Blood Counts/Gram Ratio” value came to 33.2 and the “Heart/Liver Counts/Gram Ratio” value is on record as 7.46. Further, the Liver (60 min p.i.) is 1.78 % Injected dose/organ.
Turning to `CCOCCP(CCOCC)CC(CP(CCOCC)CCOCC)OC` [Compound 36], for the setting “2 min p.i.”, the Blood was found to be 10.8 % Injected dose/organ, the Heart is 1.05 % Injected dose/organ, the “Heart/Blood Counts/Gram Ratio” value is given as 1.45 and the “Heart/Liver Counts/Gram Ratio” value came to 0.73. The compound also yielded a Liver (2 min p.i.) of 18.8 % Injected dose/organ. Besides, where the note is “60 min p.i.”, the Blood amounted to 2.18 % Injected dose/organ, the Heart worked out at 0.73 % Injected dose/organ, the “Heart/Blood Counts/Gram Ratio” value is reported as 5.69 and the “Heart/Liver Counts/Gram Ratio” value was found to be 1.62. For the same compound, under “60 min p.i.”, the Liver is reported as 6.64 % Injected dose/organ.
In the case of `CCC(CP(CCP(CC(CC)OC)CC(CC)OC)CC(CC)OC)OC` (stereo not drawn) [Compound 12], for the setting “2 min p.i.”, the Blood was found to be 11.7 % Injected dose/organ, the Heart worked out at 0.70 % Injected dose/organ, the “Heart/Blood Counts/Gram Ratio” value worked out at 1.04 and the “Heart/Liver Counts/Gram Ratio” value was 0.39. Further, where the note is “2 min p.i.”, the Liver is 25.2 % Injected dose/organ. For the setting “60 min p.i.”, the Blood was 1.63 % Injected dose/organ, the Heart was determined as 0.48 % Injected dose/organ, the “Heart/Blood Counts/Gram Ratio” value was found to be 4.7 and the “Heart/Liver Counts/Gram Ratio” value came to 0.63. The same compound gave a Liver (60 min p.i.) of 9.72 % Injected dose/organ.
In the case of `COC(C)CP(CCP(CC(C)OC)CC(C)OC)CC(C)OC` (stereo not drawn) [Compound 11], for the setting “2 min p.i.”, the Blood was determined as 9.45 % Injected dose/organ, the Heart is 0.31 % Injected dose/organ, the “Heart/Blood Counts/Gram Ratio” value came out at 1.27 and the “Heart/Liver Counts/Gram Ratio” value is reported as 0.57. The compound further gave a Liver (2 min p.i.) of 20.3 % Injected dose/organ. Where the note is “60 min p.i.”, the Blood is 1.93 % Injected dose/organ, the Heart is 0.62 % Injected dose/organ, the “Heart/Blood Counts/Gram Ratio” value stood at 5.70 and the “Heart/Liver Counts/Gram Ratio” value came to 0.75. The compound further displayed a Liver (60 min p.i.) of 12.0 % Injected dose/organ.
With `COCCP(CCOC)CCP(CCOC)CCOC` [Compound 2], under “2 min p.i.”, the Blood was 19.85 % Injected dose/organ, the Heart worked out at 0.66 % Injected dose/organ, the “Heart/Blood Counts/Gram Ratio” value was found to be 0.44 and the “Heart/Liver Counts/Gram Ratio” value was 1.57. In addition, the Liver (2 min p.i.) is 5.90 % Injected dose/organ. For the setting “60 min p.i.”, the Blood was determined as 0.54 % Injected dose/organ, the Heart was 0.17 % Injected dose/organ, the “Heart/Blood Counts/Gram Ratio” value amounted to 5.4 and the “Heart/Liver Counts/Gram Ratio” value worked out at 1.17. Where the note is “60 min p.i.”, this compound had a Liver of 2.37 % Injected dose/organ.
